Laboratory results published in patent US11753411B2, “Substituted pyrazolo[1,5-a]pyrimidines as TYK2 pseudokinase ligands” (Ventyx Biosciences, Inc., priority 2019, dated 2023).

system: IFN-a/Jak1 Tyk2; experiment: Co-stimulation assay in lysed whole blood: IFNa (JAK1/TYK2) stimulated STAT1 phosphorylation; type: cell-based; conditions: Homo sapiens, 20 min, 100 ng/mL IFNa (with 10 ng/mL GM-CSF), pSTAT by flow cytometry
Summary of the method: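 Lysed human whole blood (RBC-lysed, resuspended in cRPMI) pre-incubated with compound 1 h at 37 °C, then stimulated 20 min with IFNa 100 ng/mL plus GM-CSF 10 ng/mL (final). Fixed, permeabilised, stained for pSTAT1 (PE) and pSTAT5 (AF488); flow cytometry read-out, ≥5,000–10,000 cells acquired.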

SMILES	IC50
CNc1cc(Nc2cccc3cccnc23)nc2c(NC(=O)NC3CC3O)cnn12 (stereo not drawn) [Compound 31, 1-(2-hydroxycyclopropyl)-3-(7-(methylamino)-5-(quinolin-8-ylamino)pyrazolo[1,5-a]pyrimidin-3-yl)urea]	≥ 10 µM
CNC(=O)Nc1cnn2c(NC)cc(NC3CCCC3)nc12 [Compound 155, 1-(5-(cyclopentylamino)-7-(methylamino)pyrazolo[1,5-a]pyrimidin-3-yl)-3-methylurea]	1 to 10 µM
CNc1cc(Nc2c(F)ccc3c2OCCO3)nc2c(NC(=O)N[C@@H]3C[C@@H]3F)cnn12 [Compound 175, 1-(5-((6-fluoro-2,3-dihydrobenzo[b][1,4]dioxin-5-yl)amino)-7-(methylamino)pyrazolo[1,5-a]pyrimidin-3-yl)-3-((1R,2S)-2-fluorocyclopropyl)urea]	≥ 10 µM
CNc1cc2nc3c(cnn13)NC(=O)NCCc1cccc(c1)N2 [Compound 25, (1^3E,1^4E)-1^7-(methylamino)-2,6,8-triaza-1(5,3)-pyrazolo[1,5-a]pyrimidina-3(1,3)-benzenacyclooctaphan-7-one]	< 1 µM
CNC(=O)Nc1cnn2c(NC)cc(Nc3ccc(OC)cc3)nc12 [Compound 151, 1-(5-((4-methoxyphenyl)amino)-7-(methylamino)pyrazolo[1,5-a]pyrimidin-3-yl)-3-methylurea]	1 to 10 µM
CNc1cc(-c2cn(C(C)C)c3ncccc23)nc2c(NC(=O)NCC#N)cnn12 [Compound 130, 1-(cyanomethyl)-3-(5-(1-isopropyl-1H-pyrrolo[2,3-b]pyridin-3-yl)-7-(methylamino)pyrazolo[1,5-a]pyrimidin-3-yl)urea]	< 1 µM
CNc1cc(Nc2cccc3c2OCCO3)nc2c(NC(=O)NC3(C#N)CC3)cnn12 [Compound 28, 1-(1-cyanocyclopropyl)-3-(5-((2,3-dihydrobenzo[b][1,4]dioxin-5-yl)amino)-7-(methylamino)pyrazolo[1,5-a]pyrimidin-3-yl)urea]	≥ 10 µM
CNc1cc(Nc2cccc3c2OCCO3)nc2c(NC(=O)N(C)C)cnn12 [Compound 140, 3-(5-((2,3-dihydrobenzo[b][1,4]dioxin-5-yl)amino)-7-(methylamino)pyrazolo[1,5-a]pyrimidin-3-yl)-1,1-dimethylurea]	≥ 10 µM
CNc1cc(Nc2cc(F)cc3c2OCCO3)nc2c(NC(=O)NC3CCC3C#N)cnn12 (stereo not drawn) [Compound 46, 1-(2-cyanocyclobutyl)-3-(5-((7-fluoro-2,3-dihydrobenzo[b][1,4]dioxin-5-yl)amino)-7-(methylamino)pyrazolo[1,5-a]pyrimidin-3-yl)urea]	1 to 10 µM
[2H]C([2H])([2H])Nc1cc(Nc2cc(F)cc3c2OC([2H])([2H])C([2H])([2H])O3)nc2c(NC(=O)N[C@@H]3C[C@@H]3F)cnn12 [Compound 181, 1-(5-((7-fluoro-2,3-dihydrobenzo[b][1,4]dioxin-5-yl-2,2,3,3-d4)amino)-7-((methyl-d3)amino)pyrazolo[1,5-a]pyrimidin-3-yl)-3-((1R,2S)-2-fluorocyclopropyl)urea]	< 1 µM
CNc1cc(Nc2cc(F)cc3c2OCCO3)nc2c(NC(=O)NCCC(F)F)cnn12 [Compound 178, 1-(3,3-difluoropropyl)-3-(5-((7-fluoro-2,3-dihydrobenzo[b][1,4]dioxin-5-yl)amino)-7-(methylamino)pyrazolo[1,5-a]pyrimidin-3-yl)urea]	< 1 µM
CNc1cc(Nc2cccnc2OC(F)F)nc2c(NC(=O)N[C@@H]3C[C@@H]3F)cnn12 [Compound 171, 1-(5-((2-(difluoromethoxy)pyridin-3-yl)amino)-7-(methylamino)pyrazolo[1,5-a]pyrimidin-3-yl)-3-((1R,2S)-2-fluorocyclopropyl)urea]	1 to 10 µM
CNc1cc(-c2cn(C(C)C)c3ncccc23)nc2c(NC(=O)N[C@H]3CC[C@H]3O)cnn12 [Compound 57, 1-((1S,2R)-2-hydroxycyclobutyl)-3-(5-(1-isopropyl-1H-pyrrolo[2,3-b]pyridin-3-yl)-7-(methylamino)pyrazolo[1,5-a]pyrimidin-3-yl)urea]	1 to 10 µM
CNC(=O)Nc1cnn2c(NC)cc(Nc3cccc4c3OCO4)nc12 [Compound 153, 1-(5-(benzo[d][1,3]dioxol-4-ylamino)-7-(methylamino)pyrazolo[1,5-a]pyrimidin-3-yl)-3-methylurea]	< 1 µM
CNC(=O)Nc1cnn2c(NC)cc(Nc3ccccc3Oc3ccccc3)nc12 [Compound 161, 1-methyl-3-(7-(methylamino)-5-((2-phenoxyphenyl)amino)pyrazolo[1,5-a]pyrimidin-3-yl)urea]	1 to 10 µM
CNc1cc(Nc2cccc3c2OCCO3)nc2c(NC(=O)NC3CC3)cnn12 [Compound 139, 1-cyclopropyl-3-(5-((2,3-dihydrobenzo[b][1,4]dioxin-5-yl)amino)-7-(methylamino)pyrazolo[1,5-a]pyrimidin-3-yl)urea]	< 1 µM
CNC(=O)Nc1cnn2c(NC)cc(Nc3ccccc3-c3ncco3)nc12 [Compound 71, 1-methyl-3-(7-(methylamino)-5-((2-(oxazol-2-yl)phenyl)amino)pyrazolo[1,5-a]pyrimidin-3-yl)urea]	< 1 µM
CNC(=O)Nc1cnn2c(NC)cc(Nc3cc(F)cc4c3OCCC4)nc12 [Compound 158, 1-(5-((6-fluorochroman-8-yl)amino)-7-(methylamino)pyrazolo[1,5-a]pyrimidin-3-yl)-3-methylurea]	< 1 µM
CNc1cc(Nc2cc(F)cc3c2OCCO3)nc2c(NC(=O)NC3CC3)cnn12 [Compound 69, 1-cyclopropyl-3-(5-((7-fluoro-2,3-dihydrobenzo[b][1,4]dioxin-5-yl)amino)-7-(methylamino)pyrazolo[1,5-a]pyrimidin-3-yl)urea]	< 1 µM

Now from value to compound:

IC50	SMILES
≥ 10 µM	CNc1cc(Nc2c(F)c(F)cc3c2OCCO3)nc2c(NC(=O)N[C@@H]3C[C@@H]3F)cnn12 [Compound 61, 1-(5-((6,7-difluoro-2,3-dihydrobenzo[b][1,4]dioxin-5-yl)amino)-7-(methylamino)pyrazolo[1,5-a]pyrimidin-3-yl)-3-((1R,2S)-2-fluorocyclopropyl)urea]
1 to 10 µM	CNc1cc(Nc2cc(C)cc3c2OCCO3)nc2c(NC(=O)NC3CC3)cnn12 [Compound 79, 1-cyclopropyl-3-(5-((7-methyl-2,3-dihydrobenzo[b][1,4]dioxin-5-yl)amino)-7-(methylamino)pyrazolo[1,5-a]pyrimidin-3-yl)urea]
1 to 10 µM	CNc1cc(Nc2cc(C#N)cc3c2OCCO3)nc2c(NC(=O)NC3CCC3)cnn12 [Compound 106, 1-(5-((7-cyano-2,3-dihydrobenzo[b][1,4]dioxin-5-yl)amino)-7-(methylamino)pyrazolo[1,5-a]pyrimidin-3-yl)-3-cyclobutylurea]
1 to 10 µM	CNC(=O)Nc1cnn2c(NC)cc(NC(=O)c3ccccc3)nc12 [Compound 167, N-(7-(methylamino)-3-(3-methylureido)pyrazolo[1,5-a]pyrimidin-5-yl)benzamide]
< 1 µM	CNC(=O)Nc1cnn2c(NC)cc(Nc3cc(C)cc(C)c3)nc12 [Compound 152, 1-(5-((3,5-dimethylphenyl)amino)-7-(methylamino)pyrazolo[1,5-a]pyrimidin-3-yl)-3-methylurea]
< 1 µM	CNC(=O)Nc1cnn2c(NC)cc(Nc3cccc4c3OCCO4)nc12 [Compound 7, 1-(5-((2,3-dihydrobenzo[b][1,4]dioxin-5-yl)amino)-7-(methylamino)pyrazolo[1,5-a]pyrimidin-3-yl)-3-methylurea]
< 1 µM	CNc1cc(Nc2cccc3c2OCCO3)nc2c(NC(=O)NCC#N)cnn12 [Compound 102, 1-(cyanomethyl)-3-(5-((2,3-dihydrobenzo[b][1,4]dioxin-5-yl)amino)-7-(methylamino)pyrazolo[1,5-a]pyrimidin-3-yl)urea]
1 to 10 µM	CNc1cc(Nc2cccc3c2OCCO3)nc2c(NC(=O)NCCO)cnn12 [Compound 145, 1-(5-((2,3-dihydrobenzo[b][1,4]dioxin-5-yl)amino)-7-(methylamino)pyrazolo[1,5-a]pyrimidin-3-yl)-3-(2-hydroxyethyl)urea]
< 1 µM	CNC(=O)Nc1cnn2c(NC)cc(Nc3cc(Cl)cc4c3OCCO4)nc12 [Compound 77, 1-(5-((7-chloro-2,3-dihydrobenzo[b][1,4]dioxin-5-yl)amino)-7-(methylamino)pyrazolo[1,5-a]pyrimidin-3-yl)-3-methylurea]
< 1 µM	CNc1cc(Nc2cc(F)cc3c2OCCO3)nc2c(NC(=O)NCCOC)cnn12 [Compound 113, 1-(5-((7-fluoro-2,3-dihydrobenzo[b][1,4]dioxin-5-yl)amino)-7-(methylamino)pyrazolo[1,5-a]pyrimidin-3-yl)-3-(2-methoxyethyl)urea]
< 1 µM	CNC(=O)Nc1cnn2c(NC)cc(Nc3cc(C(F)(F)F)cc4c3OCCO4)nc12 [Compound 76, 1-methyl-3-(7-(methylamino)-5-((7-(trifluoromethyl)-2,3-dihydrobenzo[b][1,4]dioxin-5-yl)amino)pyrazolo[1,5-a]pyrimidin-3-yl)urea]
1 to 10 µM	CNC(=O)Nc1cnn2c(NC)cc(Nc3cc(OC)ccc3OC)nc12 [Compound 67, 1-(5-((2,5-dimethoxyphenyl)amino)-7-(methylamino)pyrazolo[1,5-a]pyrimidin-3-yl)-3-methylurea]
1 to 10 µM	CNC(=O)Nc1cnn2c(NC)cc(Nc3cccnc3OC3CCOCC3)nc12 [Compound 94, 1-methyl-3-(7-(methylamino)-5-((2-((tetrahydro-2H-pyran-4-yl)oxy)pyridin-3-yl)amino)pyrazolo[1,5-a]pyrimidin-3-yl)urea]
≥ 10 µM	CNc1cc(Nc2cccc3c2OCCO3)nc2c(NC(=O)N[C@@H]3C[C@@H]3F)c(C)nn12 [Compound 172, 1-(5-((2,3-dihydrobenzo[b][1,4]dioxin-5-yl)amino)-2-methyl-7-(methylamino)pyrazolo[1,5-a]pyrimidin-3-yl)-3-((1R,2S)-2-fluorocyclopropyl)urea]
